This assay concerns Plasmodium berghei. Briefly: Luciferase/luciferin-expressing antifolate-resistant parasites were used to infect a culture of HepG2 cells that were pre-incubated with compounds. Infected hepatocytes emit light due to the luciferase reaction. Assay results are presented as the percent inhibition of light emission compared to control. […]. It is filed as functional. The note with it: sporozoite; for IC90: read-out: LUCIFERASE INFECTION ASSAY - IC90.

Where [1] appears, read: read-out: LUCIFERASE INFECTION ASSAY - IC50.

As for `Cc1ccc(O)c(C(=O)NCCC(C)C)c1`, the IC90 – broadly, the point of the concentration-response curve where the effect stands at 90% – is > 10 µM. Moreover, for the setting “HEPG2TOX_HILL_SLOPE 0.253, HEPG2TOX_R_SQUARED 0.657, PBLUC_HILL_SLOPE 0.85, PBLUC_R_SQUARED 0.659, read-out: LUCIFERASE INFECTION ASSAY - IC50”, the IC50 (commonly the concentration at which inhibition is half-maximal) is 2.35 µM.

For the molecule `Fc1ccc(-c2ccc3ncc(-c4cccnc4)n3n2)cc1`, the IC90 is > 3.33 µM. In addition, the IC50 (HEPG2TOX_HILL_SLOPE 0.173, HEPG2TOX_R_SQUARED 0.325, read-out: LUCIFERASE INFECTION ASSAY - IC50) was > 3.33 µM.

As for `O=C(c1cccs1)c1c(-c2ccccc2)cc2ccccn12`, the IC90 stood at 3.73 µM. In addition, the IC50 (HEPG2TOX_HILL_SLOPE 2.42, HEPG2TOX_R_SQUARED 0.887, PBLUC_HILL_SLOPE 12.4, 11.2, PBLUC_R_SQUARED 0.720, 0.734, read-out: LUCIFERASE INFECTION ASSAY - IC50) stood at 3.1 µM.

`CC(=O)c1cccc(-c2cnc3cnc(-c4cccc(F)c4)cn23)c1`: the IC90 was > 9.96 µM. Also, the IC50 (PBLUC_HILL_SLOPE 3, PBLUC_R_SQUARED 0.624, read-out: LUCIFERASE INFECTION ASSAY - IC50) is 7.54 µM.

In the case of `O=C(c1nn(-c2ccccc2)c2c1CCC2)N1CCn2c1nc1ccccc12`, the IC90 was > 10 µM. In addition, under setting [1], the IC50 was > 10 µM.

With `CC(C)CC(N)c1csc(NC(=O)Nc2ccccc2C(C)(C)C)n1` (centres undefined), the IC90 turned out to be 3.05 µM. The IC50 (PBLUC_HILL_SLOPE 4.98, PBLUC_R_SQUARED 0.541, read-out: LUCIFERASE INFECTION ASSAY - IC50) was 1.96 µM.

For the molecule `Cc1nnnn1/C(=C\c1ccccc1)C(=O)N(Cc1cccs1)c1ccc2c(c1)OCCO2`, the IC90 was > 10 µM. In addition, the half-inhibitory concentration (IC50) under setting [1] is > 10 µM.

Consider `Cn1cc(-c2cn3c(-c4ccc(C#N)cc4)cnc3cn2)cn1`, for which the IC90 was > 11 µM. For the same molecule, under “PBLUC_HILL_SLOPE 4.44, PBLUC_R_SQUARED 0.515, read-out: LUCIFERASE INFECTION ASSAY - IC50”, the IC50 worked out at 9.55 µM.

Turning to `CCCCn1nnnc1COC(=O)c1ccccc1Sc1ccccc1C#N`, the IC90 is > 10 µM. The IC50 under setting [1] is > 10 µM.

In the case of `Cc1nc2ccccc2c(C)c1CC(=O)NCc1coc(-c2cccs2)n1`, the IC90 was > 10 µM. In addition, the IC50 under setting [1] was > 10 µM.

Take `CN(C)S(=O)(=O)c1ccc(Cn2cc(C(=O)NCc3cccc(C(F)(F)F)c3)sc2=O)cc1`: the IC90 was > 6.61 µM. Moreover, the IC50 (PBLUC_HILL_SLOPE 16, PBLUC_R_SQUARED 0.195, read-out: LUCIFERASE INFECTION ASSAY - IC50) came to 6.47 µM.

For the molecule `O=C(COC(=O)c1cccnc1Cl)NCCc1ccc(F)cc1`, the IC90 is > 10 µM. The IC50 under setting [1] was > 10 µM.

For `CC(C)c1ccccc1N(C(=O)C1CC(=O)N(CCc2ccccc2)C1)c1nc2ccccc2s1` (centres undefined), the IC90 was > 10 µM. Besides, the 50% inhibitory concentration (IC50) (HEPG2TOX_HILL_SLOPE 7.95, HEPG2TOX_R_SQUARED 0.294, read-out: LUCIFERASE INFECTION ASSAY - IC50) was > 10 µM.

For the molecule `COc1cc(C2CC(=O)c3cn[nH]c3C2)cc(OC)c1OC` (centres undefined), the IC90 is > 10.9 µM. Further, under “HEPG2TOX_HILL_SLOPE 1.57, HEPG2TOX_R_SQUARED 0.775, PBLUC_HILL_SLOPE 1.9, PBLUC_R_SQUARED 0.199, read-out: LUCIFERASE INFECTION ASSAY - IC50”, the IC50 was 5.83 µM.

With `COc1ccc(-n2ncc(C(=O)Nc3nc(-c4ccc5ccccc5c4)cs3)c2C(F)(F)F)nn1`, the IC90 is 2.93 µM. Besides, the IC50 (HEPG2TOX_HILL_SLOPE 2.25, 10.1, HEPG2TOX_R_SQUARED 0.989, 0.350, PBLUC_HILL_SLOPE 1.53, 1.53, PBLUC_R_SQUARED 0.682, 0.949, read-out: LUCIFERASE INFECTION ASSAY - IC50) stood at 0.695 µM.

On to `N#C/C(=N\Nc1cc(C(F)(F)F)cc(C(F)(F)F)c1)S(=O)(=O)c1cccs1`, for which the 90% effect concentration (IC90) worked out at 2 µM. The IC50 (FFLUC_HILL_SLOPE 43.6, FFLUC_R_SQUARED 0.536, HEPG2TOX_HILL_SLOPE 2.45, HEPG2TOX_R_SQUARED 0.984, PBLUC_HILL_SLOPE 3.51, PBLUC_R_SQUARED 0.744, read-out: LUCIFERASE INFECTION ASSAY - IC50) stood at 1.07 µM.

`COc1ccc(S(=O)(=O)Nc2cc(Sc3ccc(C)cc3)c(O)c3ccccc23)cc1`: the IC90 is > 10 µM. Besides, the IC50 (PBLUC_HILL_SLOPE 2.53, PBLUC_R_SQUARED 0.459, read-out: LUCIFERASE INFECTION ASSAY - IC50) is 6.71 µM.

With `CNC(=O)c1ccc(CN(C(=O)/C=C/c2ccc(-c3ccccc3F)s2)C2CC2)cc1`, the IC90 amounted to 6.45 µM. The IC50 (PBLUC_HILL_SLOPE 95.6, PBLUC_R_SQUARED 0.262, read-out: LUCIFERASE INFECTION ASSAY - IC50) was 6.3 µM.

For the molecule `CCCn1c(N)c(C(=O)CNc2ccccc2N2CCCCCC2)c(=O)n(C)c1=O`, the IC90 amounted to 5.69 µM. Besides, for the setting “PBLUC_HILL_SLOPE 99.9, PBLUC_R_SQUARED 0.404, read-out: LUCIFERASE INFECTION ASSAY - IC50”, the IC50 came to 5.56 µM.

Turning to `COc1cnc(-c2ccccn2)nc1SCc1ccccc1`, the IC90 is > 10.7 µM. Moreover, the IC50 under setting [1] came out at 9.29 µM.

For the molecule `O=C(NNC(=S)Nc1ccc(Cl)c(Cl)c1)c1cccnc1Oc1ccccc1`, the IC90 is > 7.62 µM. Under setting [1], the concentration for half-maximal inhibition (IC50) is > 7.62 µM.

In the case of `CC(C)(C)C(=O)ONC(N)=CS(=O)(=O)c1ccc(Cl)cc1`, the IC90 was > 9.92 µM. Moreover, the IC50 under setting [1] is > 9.92 µM.

As for `O=C(Nc1ccc(N2CCOCC2)cc1)c1ccccc1Nc1ccc(F)cc1`, the IC90 was > 10 µM. For the same molecule, the IC50 under setting [1] was > 10 µM.

`C=C1CC(=O)N(c2ccc(OC(F)(F)F)cc2)C1=O`: the IC90 is > 12.2 µM. Also, under setting [1], the IC50 is > 12.2 µM.

Turning to `COC(=O)c1ccccc1N(C)S(=O)(=O)c1ccc(Cl)cc1F`, the IC90 is > 10 µM. Besides, the IC50 under setting [1] is > 10 µM.

Consider `CCCCCCc1nc(SCC(=O)Nc2cc(C)on2)c2c(=O)n(C)c(=O)n(CCC)c2n1`, for which the IC90 is > 10 µM. In addition, the IC50 under setting [1] was > 10 µM.

`O=C(Nc1ccc(Cl)cc1)O/N=C\c1ccc(C#Cc2ccccc2)cc1`: the IC90 is > 8.8 µM. Also, under setting [1], the IC50 was > 8.8 µM.
